Source: US9353101B2 (Merck Sharp & Dohme Corp., priority 2012, dated 2016)

The molecules below were run against CETP (Homo sapiens (Human), UniProt P11597) (assay: In vitro radioactive assay of CETP-catalyzed CE and TG transfer (RTA assay), 95% human serum). Settings: RTA assay in 95% human serum; read-out: RTA IC50 (CETP Inhibition).
Assay type: biochemical
Experimental: In Vitro Radioactive Assays of CETP-Catalyzed CE and TG Transfer (RTA Assay)
Reagents and sources are: [3H] cholesteryl oleate (GE #TRK.886), [3H] Triolein (Perkin-Elmer NET-431), Butylated hydroxyl toluene (Aldrich, #D4740-4), DOPC (Sigma, # P6354), Sodium Bromide (Fisher scientific #S255-500), PEG 8000 (Fisher, #BP233-1), and human HDL (Intracel Corp #RP-036).
An in vitro assay for determining IC50's to identify compounds that inhibit CETP transfer activity is performed based on a modification of a published method (Morton and Zilversmit, (1981) A plasma inhibitor of triglyceride and cholesteryl ester transfer activities, J. Biol. Chem. 256(23), 11992-11995). The ability of inhibitors to alter CETP activity is performed using two different assays: one using recombinant CETP and one using an endogenous plasma source of CETP. Both assays measure the transfer of [3H] cholesteryl oleate or [3H] triolein from exogenous LDL to HDL.
Radiolabeled donor particles are generated by first combining 100 μl of 200 μM butylated hydroxyl toluene in CHCl3, 216 μL of 21.57 mM DOPC in EtOH, and either 500 μCi [3H]-triolein (Perkin Elmer #NET-431) or 500 μCi [3H]-cholesteryl oleate (GE #TRK886) in a glass tube. Reagents are mixed, dried under nitrogen, and then resuspended in 2 mL of 50 mM Tris, 27 μM EDTA at pH 7.4. After a brief vortex, the solution is sonicated until clear and mixed with 20 mL of fresh human serum. The mixture is incubated overnight at 37° C. The [3H] labeled LDL substrate is separated at 1.063 g/ml density by sequential ultracentrifugal flotation in NaBr according to the method by (Havel, Eder et al. 1955; Chapman, Goldstein et al. 1981). Once isolated the particles are dialyzed 3× in CETP buffer (50 mM Tris, pH 7.4, 100 mM NaCl, 1 mM EDTA). Human HDL is purchased from Intracel and used as the acceptor particles.
Transfer assays are performed in a 96 or 384-well v-bottom polypropylene plate. For the RTA using recombinant CETP (2% RTA), an assay cocktail is prepared with the final concentrations 128 μg/mL HDL, 20 nM rCETP, 2% human serum, and 1×CETP buffer. 1 μL of each test compound diluted in DMSO is added to 47 μL of assay cocktail per well and incubated at 37° C. for 1 hour. To initiate the transfer reaction, 2 μL radiolabeled LDL is added. After an additional 60 min of incubation at 37° C., the transfer action is terminated by precipitation of LDL with an equal volume of 20% W/V PEG 8000. The plates are centrifuged at 2000 rpm for 30 minutes at 4° C. A 40 μL aliquot of the HDL-containing supernatant is transferred to a Packard Optiplate™ with 200 μL of MicroScint™ 20. After mixing, plates are counted by liquid scintillation. Counts present in the supernatant for blanks (wells containing only HDL acceptor, CETP buffer and DMSO) are subtracted from those containing test compounds and used to correct for non-specific transfer.
For the transfer assay using endogenous CETP from serum (95% RTA), the same procedure is used except that human serum is added such that a final concentration of serum of 95% of the total assay volume is achieved, yielding a concentration of approximately 15 nM endogenous CETP in the assay. This is then combined with HDL and CETP buffer and the reaction proceeds as above and is terminated as described.
Comparison of the counts of samples with inhibitors to an uninhibited (DMSO only) positive control yield a percent inhibition. A plot of percent inhibition vs. log of inhibitor concentration, fit to a Sigmoidal 4 parameter equation is used to calculate IC50.
Starting materials are commercially available or are made using known procedures or as shown below. The examples may be synthesized using the general schemes provided below. The data reported for the examples below were obtained using the RTA assay in 95% human serum.

Chain of CETP (P11597 18-493 limits assumed): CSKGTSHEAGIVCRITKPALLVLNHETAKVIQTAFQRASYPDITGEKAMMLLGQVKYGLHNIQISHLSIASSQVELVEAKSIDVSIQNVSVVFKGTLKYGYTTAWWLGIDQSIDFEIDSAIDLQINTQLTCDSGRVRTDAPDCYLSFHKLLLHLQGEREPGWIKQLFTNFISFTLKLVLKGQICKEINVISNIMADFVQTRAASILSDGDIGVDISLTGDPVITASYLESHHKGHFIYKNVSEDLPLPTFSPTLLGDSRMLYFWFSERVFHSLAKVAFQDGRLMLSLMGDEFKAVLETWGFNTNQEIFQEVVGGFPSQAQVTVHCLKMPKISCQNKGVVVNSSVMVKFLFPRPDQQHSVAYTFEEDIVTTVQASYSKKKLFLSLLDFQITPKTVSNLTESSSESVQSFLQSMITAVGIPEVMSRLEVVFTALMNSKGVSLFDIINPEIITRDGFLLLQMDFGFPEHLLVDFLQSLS

Structure (SMILES)	IC50 [nM]
COc1ncc(-c2c(C)cc(C(=O)O)cc2C)cc1-c1cnc(N2CCOCC2)nc1CN1C(=O)O[C@H](c2cc(C(F)(F)F)cc(C(F)(F)F)c2)[C@@H]1C [Example 34, 4-{5-[4-({(4S,5R)-5-[3,5-Bis(trifluoromethyl)phenyl]-4-methyl-2-oxo-1,3-oxazolidin-3-yl}methyl)-2-(morpholin-4-yl)pyrimidin-5-yl]-6-methoxypyridin-3-yl}-3,5-dimethylbenzoic acid]	10
COc1ncc(-c2c(C)cc(-c3n[nH]c(=O)o3)cc2C)cc1-c1cnc(N2CCOCC2)nc1CN1C(=O)O[C@H](c2cc(C(F)(F)F)cc(C(F)(F)F)c2)[C@@H]1C [Example 35, 5-(4-{5-[4-({(4S,5R)-5-[3,5-Bis(trifluoromethyl)phenyl]-4-methyl-2-oxo-1,3-oxazolidin-3-yl}methyl)-2-(morpholin-4-yl)pyrimidin-5-yl]-6-methoxypyridin-3-yl}-3,5-dimethylphenyl)-1,3,4-oxadiazol-2(3H)-one]	10
COc1ncc(-c2ccc(C(=O)O)cc2C)cc1-c1cnc(N2CC(F)C2)nc1CN1C(=O)O[C@H](c2cc(C(F)(F)F)cc(C(F)(F)F)c2)[C@@H]1C [Example 36, 4-{5-[4-({(4S,5R)-5-[3,5-Bis(trifluoromethyl)phenyl]-4-methyl-2-oxo-1,3-oxazolidin-3-yl}methyl)-2-(3-fluoroazetidin-1-yl)pyrimidin-5-yl]-6-methoxypyridin-3-yl}-3-methylbenzoic acid]	12
COc1ncc(-c2ccc(C(=O)Nc3nnn[nH]3)cc2C)cc1-c1cnc(N2CC(F)C2)nc1CN1C(=O)O[C@H](c2cc(C(F)(F)F)cc(C(F)(F)F)c2)[C@@H]1C [Example 37, 4-{5-[4-({(4S,5R)-5-[3,5-Bis(trifluoromethyl)phenyl]-4-methyl-2-oxo-1,3-oxazolidin-3-yl}methyl)-2-(3-fluoroazetidin-1-yl)pyrimidin-5-yl]-6-methoxypyridin-3-yl}-3-methyl-N-(1H-tetrazol-5-yl)benzamide]	10
COc1ncc(-c2ccc(-c3n[nH]c(=O)o3)cc2C)cc1-c1cnc(N2CC(F)C2)nc1CN1C(=O)O[C@H](c2cc(C(F)(F)F)cc(C(F)(F)F)c2)[C@@H]1C [Example 38, 5-(4-{5-[4-({(4S,5R)-5-[3,5-Bis(trifluoromethyl)phenyl]-4-methyl-2-oxo-1,3-oxazolidin-3-yl}methyl)-2-(3-fluoroazetidin-1-yl)pyrimidin-5-yl]-6-methoxypyridin-3-yl}-3-methylphenyl)-1,3,4-oxadiazol-2(3H)-one]	12
COc1ncc(-c2ccc(C(=O)O)cc2C)cc1-c1cnc(N2CCOCC2)nc1CN1C(=O)O[C@H](c2cc(C(F)(F)F)cc(C(F)(F)F)c2)[C@@H]1C [Example 39, 4-{5-[4-({(4S,5R)-5-[3,5-Bis(trifluoromethyl)phenyl]-4-methyl-2-oxo-1,3-oxazolidin-3-yl}methyl)-2-(morpholin-4-yl)pyrimidin-5-yl]-6-methoxypyridin-3-yl}-3-methylbenzoic acid]	13
COc1ncc(-c2ccc(-c3n[nH]c(=O)o3)cc2C)cc1-c1cnc(N2CCOCC2)nc1CN1C(=O)O[C@H](c2cc(C(F)(F)F)cc(C(F)(F)F)c2)[C@@H]1C [Example 40, 5-(4-{5-[4-({(4S,5R)-5-[3,5-Bis(trifluoromethyl)phenyl]-4-methyl-2-oxo-1,3-oxazolidin-3-yl}methyl)-2-(morpholin-4-yl)pyrimidin-5-yl]-6-methoxypyridin-3-yl}-3-methylphenyl)-1,3,4-oxadiazol-2(3H)-one]	29
COc1ncc(-c2ccc(C(=O)Nc3nnn[nH]3)cc2C)cc1-c1cnc(N2CCOCC2)nc1CN1C(=O)O[C@H](c2cc(C(F)(F)F)cc(C(F)(F)F)c2)[C@@H]1C [Example 41, 4-{5-[4-({(4S,5R)-5-[3,5-Bis(trifluoromethyl)phenyl]-4-methyl-2-oxo-1,3-oxazolidin-3-yl}methyl)-2-(morpholin-4-yl)pyrimidin-5-yl]-6-methoxypyridin-3-yl}-3-methyl-N-(1H-tetrazol-5-yl)benzamide]	11
